Legend:
Format in all cases: biochemical
yeast α-glucosidase = target: T1, yeast α-glucosidase (Saccharomyces cerevisiae, UniProt P53341); test: α-Glucosidase inhibition assay, pH 7.4; conditions: 5 mM test compound, read-out: ALPHA GLUCOSIDASE pH 7.4 (enzyme inhibition)
T1 construct: purchased Sigma
Method: (§1) The glycosidase inhibition activity is determined by modifying an assay procedure described in Evans et al, Phytochemistry, 22, pp. 768-770 (1983). More particularly, yeast α-glucosidase and almond β-glucosidase activities were measured by the Evans et al method which was modified by assaying activities at pH 7.4 in N-2-hydroxyethylpiperazine-N-2-ethane sulfonic acid (HEPES) buffer, measuring in 96 well microtiter plates, and including 10% DMSO in control and test samples.
(§2) The release of p-nitrophenol from the substrate p-nitrophenylglycoside was measured spectrophotometrically in the presence and absence of test compound. Each assay included a known inhibitor of the enzyme as a standard. […]
To 100 ul 50 mM HEPES buffer, pH 7.4, in a microtiter plate, 20 ul test compound in DMSO (DMSO alone in control)and 40 ul (0.013 units) yeast α-glucosidase (Sigma) in HEPES buffer were added and pre-incubated at room temperature 15 minutes. 40 ul 1.25 mM p-nitrophenyl-α-D-glucopyranoside (Sigma) in HEPES buffer, as substrate was added and the absorbance change at 405 nm was monitored in a Biotek EIA Autoreader. Absorption change was measured at 15 to 25 minutes (reaction was linear for at least 30 minutes). […] IC50 values were determined from the linear portion of the log concentration vs percent inhibition curve obtained from a minimum of 3 points. […]

almond β-glucosidase [1] = test: β-Glucosidase inhibition assay, pH 4.8; conditions: 5 mM test compound
Method: as §1
(§3) The release of p-nitrophenol from the substrate p-nitrophenylglycoside was measured spectrophotometrically in the presence and absence of test compound. Each assay included a known inhibitor of the enzyme as a standard. IC50 values were determined for compounds which inhibited the enzymes more than 50% at a 1 millimolar concentration.
β-Glucosidase Inhibition Assay
To 100 ul 50 mM sodium citrate buffer, pH 4.8, in a microtiter plate, 20 ul test compound in DMSO (DMSO alone in control) and 20 ul (0.017 units) β-glucosidase (Sigma) in citrate buffer were added and pre-incubated at room temperature 15 minutes. […] 50 ul 0.4 M NaOH was added and the absorption change at 405 nm was determined utilizing a Biotek EIA Autoreader. […] IC50 values were determined from the linear portion of the log concentration vs percent inhibition curve obtained from a minimum of 3 points. […]

almond β-glucosidase [2] = test: β-Glucosidase inhibition assay, pH 7.4; conditions: 5 mM test compound
Method: as §1, §2
To 100 ul 50 mM HEPES buffer, pH 7.4, in a microtiter plate, 20 ul test compound in DMSO (DMSO alone in control) and 40 ul (0.136 units) β-glucosidase (Sigma) in HEPES buffer were added and preincubated at room temperature 15 minutes. 40 ul 1.25 mM p-nitrophenyl-β-D-glucopyranoside in HEPES buffer was added as substrate and the absorbance change at 405 nm was monitored utilizing a Biotek EIA Autoreader. Absorption change was measured at 15 to 25 minutes (reaction is linear for at least 30 minutes). […] IC50 values were determined from the linear portion of the log concentration vs percent inhibition curve obtained from a minimum of 3 points. […]

alpha mannosidase [3] = target: T2, alpha mannosidase (Canavalia ensiformis, UniProt C0HJB3); test: α-Mannosidase inhibition, pH 4.5; conditions: 5 mM test compound, read-out: ALPHA MANNOSIDASE pH 4.5 (enzyme inhibition)
T2 sequence (C0HJB3 1-981): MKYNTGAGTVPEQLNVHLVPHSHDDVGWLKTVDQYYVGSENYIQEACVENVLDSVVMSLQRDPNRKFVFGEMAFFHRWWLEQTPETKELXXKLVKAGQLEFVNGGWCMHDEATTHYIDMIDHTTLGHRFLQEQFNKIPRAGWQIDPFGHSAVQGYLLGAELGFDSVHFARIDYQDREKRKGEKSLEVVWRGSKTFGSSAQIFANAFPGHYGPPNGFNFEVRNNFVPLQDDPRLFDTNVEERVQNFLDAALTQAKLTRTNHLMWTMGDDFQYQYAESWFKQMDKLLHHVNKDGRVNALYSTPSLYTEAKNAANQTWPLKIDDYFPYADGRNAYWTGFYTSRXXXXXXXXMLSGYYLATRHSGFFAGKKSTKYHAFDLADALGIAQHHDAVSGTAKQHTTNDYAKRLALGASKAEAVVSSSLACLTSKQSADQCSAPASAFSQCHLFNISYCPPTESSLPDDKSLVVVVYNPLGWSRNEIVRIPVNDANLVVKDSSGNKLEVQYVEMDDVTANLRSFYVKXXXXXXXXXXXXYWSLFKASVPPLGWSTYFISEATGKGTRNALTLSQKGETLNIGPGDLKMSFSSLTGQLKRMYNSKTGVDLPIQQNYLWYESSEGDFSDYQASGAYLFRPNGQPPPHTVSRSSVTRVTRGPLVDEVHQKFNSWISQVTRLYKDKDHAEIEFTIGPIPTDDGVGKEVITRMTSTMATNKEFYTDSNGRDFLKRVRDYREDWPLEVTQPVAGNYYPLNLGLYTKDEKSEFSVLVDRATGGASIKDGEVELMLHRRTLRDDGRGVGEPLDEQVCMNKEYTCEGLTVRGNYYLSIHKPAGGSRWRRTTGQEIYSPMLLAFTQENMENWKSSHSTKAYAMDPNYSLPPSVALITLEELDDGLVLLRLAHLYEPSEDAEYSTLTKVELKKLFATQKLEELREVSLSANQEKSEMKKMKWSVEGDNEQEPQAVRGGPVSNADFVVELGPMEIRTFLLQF
Method: as §3

alpha mannosidase [4] = target: T2, alpha mannosidase; test: α-Mannosidase inhibition, pH 7.4; conditions: 5 mM test compound, read-out: ALPHA MANNOSIDASE pH 7.4 (enzyme inhibition)
Method: as §3

T1 sequence (P53341 whole entry): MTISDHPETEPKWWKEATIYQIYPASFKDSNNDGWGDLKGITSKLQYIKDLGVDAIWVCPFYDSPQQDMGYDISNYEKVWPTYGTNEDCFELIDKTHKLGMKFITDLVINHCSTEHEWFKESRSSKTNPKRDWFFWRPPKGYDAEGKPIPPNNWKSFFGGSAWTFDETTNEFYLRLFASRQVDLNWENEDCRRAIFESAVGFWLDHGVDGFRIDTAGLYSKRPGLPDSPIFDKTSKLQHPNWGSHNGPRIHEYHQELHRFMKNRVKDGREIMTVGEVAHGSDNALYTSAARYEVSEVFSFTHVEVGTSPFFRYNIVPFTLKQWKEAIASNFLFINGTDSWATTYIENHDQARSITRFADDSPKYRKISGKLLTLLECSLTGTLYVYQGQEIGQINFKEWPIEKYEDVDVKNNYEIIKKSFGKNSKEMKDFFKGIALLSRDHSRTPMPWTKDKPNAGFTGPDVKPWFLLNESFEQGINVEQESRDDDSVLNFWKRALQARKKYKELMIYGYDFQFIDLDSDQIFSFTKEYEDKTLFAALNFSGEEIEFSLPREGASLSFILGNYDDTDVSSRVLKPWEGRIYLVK

| Structure (SMILES) | inhibition at 5000 µM (yeast α-glucosidase) | BETA GLUCOSIDASE pH 4.8 (enzyme inhibition) (almond β-glucosidase [1]) | BETA GLUCOSIDASE pH 7.4 (enzyme inhibition) (almond β-glucosidase [2]) | inhibition at 5000 µM (alpha mannosidase [3]) | inhibition at 5000 µM (alpha mannosidase [4]) |
| --- | --- | --- | --- | --- | --- |
| OC[C@H]1NC[C@H](O)[C@@H](O)[C@@H]1F [Compound 1, 1,4-dideoxy-4-fluoronojirimycin] | 18% | 17% | 13% | -2% | 12% |
| CCCCN1C[C@H](O)[C@@H](O)[C@H](F)[C@H]1CO [Compound 2, N-butyl-1,4-dideoxy-4-fluoronojirimycin] | 28% | 13% | 14% | -3% | 6% |

Source: patent US5128347A, “Glycosidase inhibiting 1,4-dideoxy-4-fluoronojirimycin” (Monsanto Company, priority 1990, dated 1992)
